PMC11903733 (Frontiers in Pharmacology, 2025)

Legend:
Assay in all cases: SelectScreen kinase profiling
Type in all cases: biochemical
EPHA1 = EPHA1 (Homo sapiens, UniProt P21709)
Description: (§1) The kinase selectivity analysis of LTM-1 was performed utilizing the SelectScreen Kinase Profiling Service offered by Thermo Fisher Scientific. In a dose-response assay featuring a ten-point dilution series from 0.25 μM to 128 μM, the inhibitory effects of LTM-1 on substrate phosphorylation reactions catalyzed by a panel of kinases were assessed. Consequently, the half-maximal inhibitory concentrations (IC50 values) for each kinase were determined.

ERBB4 = ERBB4 (Homo sapiens, UniProt Q15303)
Description: as §1

MST1R = MST1R (Homo sapiens, UniProt Q04912)
Description: as §1

CDK13 = CDK13 (Homo sapiens, UniProt Q14004)
Description: as §1

MET = MET (Homo sapiens, UniProt P08581)
Description: as §1

PDGFRA = PDGFRA (Homo sapiens, UniProt P16234)
Description: as §1

CDK12 = CDK12 (Homo sapiens, UniProt Q9NYV4)
Description: as §1

ROS1 = ROS1 (Homo sapiens, UniProt P08922)
Description: as §1

EPHB3 = EPHB3 (Homo sapiens, UniProt P54753)
Description: as §1

CDK1 = CDK1 (Homo sapiens, UniProt P06493)
Description: as §1

FYN = FYN (Homo sapiens, UniProt P06241)
Description: as §1

MERTK = MERTK (Homo sapiens, UniProt Q12866)
Description: as §1

ALK = ALK (Homo sapiens, UniProt Q9UM73)
Description: as §1

CDK7 = CDK7 (Homo sapiens, UniProt P50613)
Description: as §1

PLK1 = PLK1 (Homo sapiens, UniProt P53350)
Description: as §1

BLK = BLK (Homo sapiens, UniProt P51451)
Description: as §1

JAK3 = JAK3 (Homo sapiens, UniProt P52333)
Description: as §1

LYN = LYN (Homo sapiens, UniProt P07948)
Description: as §1

KIT = KIT (Homo sapiens, UniProt P10721)
Description: as §1

PIM1 = PIM1 (Homo sapiens, UniProt P11309)
Description: as §1

NTRK3 = NTRK3 (Homo sapiens, UniProt Q16288)
Description: as §1

ABL2 = ABL2 (Homo sapiens, UniProt P42684)
Description: as §1

EPHB2 = EPHB2 (Homo sapiens, UniProt P29323)
Description: as §1

EPHB1 = EPHB1 (Homo sapiens, UniProt P54762)
Description: as §1

JAK1 = JAK1 (Homo sapiens, UniProt P23458)
Description: as §1

CSF1R = CSF1R (Homo sapiens, UniProt P07333)
Description: as §1

AXL = AXL (Homo sapiens, UniProt P30530)
Description: as §1

ERBB2 = ERBB2 (Homo sapiens, UniProt P04626)
Description: as §1

PLK2 = PLK2 (Homo sapiens, UniProt Q9NYY3)
Description: as §1

DDR1 = DDR1 (Homo sapiens, UniProt Q08345)
Description: as §1

FES = FES (Homo sapiens, UniProt P07332)
Description: as §1

CDK5 = CDK5 (Homo sapiens, UniProt Q00535)
Description: as §1

FGFR3 = FGFR3 (Homo sapiens, UniProt P22607)
Description: as §1

PTK2 = PTK2 (Homo sapiens, UniProt Q05397)
Description: as §1

CDK3 = CDK3 (Homo sapiens, UniProt Q00526)
Description: as §1

EPHB4 = EPHB4 (Homo sapiens, UniProt P54760)
Description: as §1

RAF1 = RAF1 (Homo sapiens, UniProt P04049, Y340D/Y341D)
Description: as §1

CDK19 = CDK19 (Homo sapiens, UniProt Q9BWU1)
Description: as §1

FGFR1 = FGFR1 (Homo sapiens, UniProt P11362)
Description: as §1

CDK8 = CDK8 (Homo sapiens, UniProt P49336)
Description: as §1

FRK = FRK (Homo sapiens, UniProt P42685)
Description: as §1

ZAK = ZAK (Homo sapiens, UniProt Q9NYL2)
Description: as §1

Sequence of PDGFRA (P16234 24-1089): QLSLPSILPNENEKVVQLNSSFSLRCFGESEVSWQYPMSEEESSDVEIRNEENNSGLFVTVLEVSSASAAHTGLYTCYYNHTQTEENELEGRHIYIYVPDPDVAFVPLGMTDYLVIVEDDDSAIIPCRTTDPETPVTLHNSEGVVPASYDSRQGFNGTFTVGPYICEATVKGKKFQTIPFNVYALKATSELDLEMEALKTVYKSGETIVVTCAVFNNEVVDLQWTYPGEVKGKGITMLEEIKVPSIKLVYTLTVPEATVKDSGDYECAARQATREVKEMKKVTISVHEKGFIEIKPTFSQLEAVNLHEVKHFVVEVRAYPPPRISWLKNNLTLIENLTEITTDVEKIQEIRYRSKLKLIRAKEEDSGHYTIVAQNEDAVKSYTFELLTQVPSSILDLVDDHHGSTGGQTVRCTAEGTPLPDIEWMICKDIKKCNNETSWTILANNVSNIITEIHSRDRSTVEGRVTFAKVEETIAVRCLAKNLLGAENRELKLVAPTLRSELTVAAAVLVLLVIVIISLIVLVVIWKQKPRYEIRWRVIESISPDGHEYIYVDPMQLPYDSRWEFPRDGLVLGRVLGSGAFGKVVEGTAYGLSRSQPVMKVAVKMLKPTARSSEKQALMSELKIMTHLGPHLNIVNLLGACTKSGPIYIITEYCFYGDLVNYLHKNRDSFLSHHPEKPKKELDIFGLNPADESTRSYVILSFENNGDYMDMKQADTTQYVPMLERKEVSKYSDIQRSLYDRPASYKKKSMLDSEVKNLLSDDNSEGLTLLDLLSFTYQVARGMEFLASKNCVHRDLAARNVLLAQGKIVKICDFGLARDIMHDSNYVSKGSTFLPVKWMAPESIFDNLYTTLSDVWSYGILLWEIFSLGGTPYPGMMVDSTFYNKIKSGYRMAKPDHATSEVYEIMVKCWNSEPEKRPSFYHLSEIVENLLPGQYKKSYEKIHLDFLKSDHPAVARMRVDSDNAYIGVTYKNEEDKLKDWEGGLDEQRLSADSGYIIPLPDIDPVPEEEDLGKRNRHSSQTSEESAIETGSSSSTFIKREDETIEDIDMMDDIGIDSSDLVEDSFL
Sequence of CDK8 (P49336 whole entry): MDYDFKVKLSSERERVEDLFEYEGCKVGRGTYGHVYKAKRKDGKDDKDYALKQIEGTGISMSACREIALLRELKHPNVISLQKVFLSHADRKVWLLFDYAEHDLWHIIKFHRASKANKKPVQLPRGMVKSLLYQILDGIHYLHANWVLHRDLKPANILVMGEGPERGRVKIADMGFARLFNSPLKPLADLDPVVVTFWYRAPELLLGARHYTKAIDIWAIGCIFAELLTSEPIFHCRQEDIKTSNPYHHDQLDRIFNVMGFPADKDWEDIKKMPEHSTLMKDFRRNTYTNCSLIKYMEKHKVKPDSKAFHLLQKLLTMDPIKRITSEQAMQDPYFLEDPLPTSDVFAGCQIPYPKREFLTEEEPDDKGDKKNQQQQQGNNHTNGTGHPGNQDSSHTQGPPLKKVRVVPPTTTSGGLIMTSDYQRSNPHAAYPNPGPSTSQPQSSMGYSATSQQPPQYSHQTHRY
Sequence of CDK8 (P24863 whole entry partner): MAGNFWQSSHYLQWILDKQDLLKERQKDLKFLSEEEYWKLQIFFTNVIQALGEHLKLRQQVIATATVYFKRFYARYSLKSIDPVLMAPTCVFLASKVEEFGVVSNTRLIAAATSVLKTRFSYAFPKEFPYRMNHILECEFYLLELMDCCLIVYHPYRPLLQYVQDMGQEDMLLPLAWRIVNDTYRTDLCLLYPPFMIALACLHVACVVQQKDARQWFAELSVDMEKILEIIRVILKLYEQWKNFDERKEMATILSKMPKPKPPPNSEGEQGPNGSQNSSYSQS
Sequence of ALK (Q9UM73 19-1620): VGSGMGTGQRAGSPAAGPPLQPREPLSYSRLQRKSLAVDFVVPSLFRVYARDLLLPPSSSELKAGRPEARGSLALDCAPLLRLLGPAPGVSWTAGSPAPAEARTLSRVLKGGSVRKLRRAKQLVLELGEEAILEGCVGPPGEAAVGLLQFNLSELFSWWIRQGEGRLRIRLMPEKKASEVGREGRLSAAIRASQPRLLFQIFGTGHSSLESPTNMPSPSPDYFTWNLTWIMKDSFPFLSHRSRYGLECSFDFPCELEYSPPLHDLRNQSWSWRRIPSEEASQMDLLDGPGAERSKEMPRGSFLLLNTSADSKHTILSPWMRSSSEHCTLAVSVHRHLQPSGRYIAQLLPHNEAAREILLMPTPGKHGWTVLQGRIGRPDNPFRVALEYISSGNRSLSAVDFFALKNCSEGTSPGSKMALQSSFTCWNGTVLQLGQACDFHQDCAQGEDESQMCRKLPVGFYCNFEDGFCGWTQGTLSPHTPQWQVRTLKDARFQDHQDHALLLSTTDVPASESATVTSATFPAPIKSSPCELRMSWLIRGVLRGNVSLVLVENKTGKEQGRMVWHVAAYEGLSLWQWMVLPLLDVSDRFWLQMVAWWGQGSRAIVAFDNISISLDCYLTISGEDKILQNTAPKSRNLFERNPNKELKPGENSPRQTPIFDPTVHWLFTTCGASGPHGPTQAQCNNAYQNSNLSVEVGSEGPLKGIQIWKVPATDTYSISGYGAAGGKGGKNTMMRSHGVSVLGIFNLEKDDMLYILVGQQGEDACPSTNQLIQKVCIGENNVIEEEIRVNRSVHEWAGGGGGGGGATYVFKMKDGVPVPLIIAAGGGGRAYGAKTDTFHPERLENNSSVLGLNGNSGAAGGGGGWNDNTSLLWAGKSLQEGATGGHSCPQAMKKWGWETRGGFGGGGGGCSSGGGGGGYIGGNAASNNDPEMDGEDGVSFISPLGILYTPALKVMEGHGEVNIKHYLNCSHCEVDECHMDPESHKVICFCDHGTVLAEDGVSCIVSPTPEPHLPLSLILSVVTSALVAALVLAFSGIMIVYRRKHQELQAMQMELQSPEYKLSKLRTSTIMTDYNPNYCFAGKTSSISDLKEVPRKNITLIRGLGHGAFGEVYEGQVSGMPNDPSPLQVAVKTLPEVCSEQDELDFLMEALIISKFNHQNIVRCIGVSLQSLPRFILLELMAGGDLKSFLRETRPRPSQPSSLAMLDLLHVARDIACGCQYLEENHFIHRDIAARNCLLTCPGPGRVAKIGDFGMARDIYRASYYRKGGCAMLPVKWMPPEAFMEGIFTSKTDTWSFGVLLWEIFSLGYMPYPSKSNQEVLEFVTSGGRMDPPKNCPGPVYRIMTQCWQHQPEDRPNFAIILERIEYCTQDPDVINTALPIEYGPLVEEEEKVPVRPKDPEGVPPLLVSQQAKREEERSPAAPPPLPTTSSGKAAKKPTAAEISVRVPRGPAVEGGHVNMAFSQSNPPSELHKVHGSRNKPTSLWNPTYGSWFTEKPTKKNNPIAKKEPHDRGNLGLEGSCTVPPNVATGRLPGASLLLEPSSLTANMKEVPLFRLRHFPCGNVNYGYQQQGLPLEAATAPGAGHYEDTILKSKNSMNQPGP
Sequence of CDK3 (Q00526 whole entry): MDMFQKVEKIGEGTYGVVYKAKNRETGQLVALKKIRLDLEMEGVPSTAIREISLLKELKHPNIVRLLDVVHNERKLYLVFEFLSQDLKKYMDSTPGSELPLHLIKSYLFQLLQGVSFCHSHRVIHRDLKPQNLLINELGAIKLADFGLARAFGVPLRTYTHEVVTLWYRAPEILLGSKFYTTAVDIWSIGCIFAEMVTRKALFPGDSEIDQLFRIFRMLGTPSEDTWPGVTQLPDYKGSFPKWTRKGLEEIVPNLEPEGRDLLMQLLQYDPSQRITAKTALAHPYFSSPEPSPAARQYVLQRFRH
Sequence of CDK3 (P24864 whole entry partner): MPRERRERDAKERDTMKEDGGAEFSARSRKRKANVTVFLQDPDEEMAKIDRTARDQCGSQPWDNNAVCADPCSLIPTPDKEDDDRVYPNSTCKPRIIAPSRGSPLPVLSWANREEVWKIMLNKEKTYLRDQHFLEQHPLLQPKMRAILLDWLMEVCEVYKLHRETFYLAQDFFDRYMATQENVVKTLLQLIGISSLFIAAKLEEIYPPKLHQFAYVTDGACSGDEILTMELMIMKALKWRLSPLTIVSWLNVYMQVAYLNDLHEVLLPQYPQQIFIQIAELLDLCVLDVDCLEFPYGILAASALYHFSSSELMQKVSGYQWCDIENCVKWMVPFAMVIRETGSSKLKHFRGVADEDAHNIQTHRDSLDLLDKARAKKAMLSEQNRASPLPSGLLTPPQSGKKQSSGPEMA
Sequence of PIM1 (P11309 whole entry): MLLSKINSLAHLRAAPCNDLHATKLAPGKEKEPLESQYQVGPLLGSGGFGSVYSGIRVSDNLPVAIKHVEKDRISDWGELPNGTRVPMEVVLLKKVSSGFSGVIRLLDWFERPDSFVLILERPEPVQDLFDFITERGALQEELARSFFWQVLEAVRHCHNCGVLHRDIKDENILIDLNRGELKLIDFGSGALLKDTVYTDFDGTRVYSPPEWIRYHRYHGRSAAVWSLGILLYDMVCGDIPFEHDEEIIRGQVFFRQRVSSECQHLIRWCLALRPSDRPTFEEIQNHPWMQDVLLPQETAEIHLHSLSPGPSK
Sequence of FYN (P06241 whole entry): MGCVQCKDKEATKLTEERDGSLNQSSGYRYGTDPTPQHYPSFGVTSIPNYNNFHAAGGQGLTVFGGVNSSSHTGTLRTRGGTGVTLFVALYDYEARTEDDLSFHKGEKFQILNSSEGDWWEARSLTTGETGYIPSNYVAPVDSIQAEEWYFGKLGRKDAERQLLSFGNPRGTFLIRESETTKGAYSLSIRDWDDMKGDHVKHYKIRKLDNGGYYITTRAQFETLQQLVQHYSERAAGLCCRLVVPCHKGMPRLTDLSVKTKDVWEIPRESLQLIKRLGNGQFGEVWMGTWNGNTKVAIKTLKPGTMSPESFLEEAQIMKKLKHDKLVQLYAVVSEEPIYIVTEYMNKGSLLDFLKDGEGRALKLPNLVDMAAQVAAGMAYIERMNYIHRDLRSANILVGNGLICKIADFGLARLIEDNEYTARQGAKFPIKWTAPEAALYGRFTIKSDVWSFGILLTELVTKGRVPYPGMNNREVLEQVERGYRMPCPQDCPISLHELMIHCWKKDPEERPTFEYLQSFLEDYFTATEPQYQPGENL

IC50 (EPHA1): > 10 µM
IC50 (ERBB4): > 10 µM
IC50 (MST1R): > 10 µM
IC50 (CDK13): > 10 µM
IC50 (MET): > 10 µM
IC50 (PDGFRA): > 10 µM
IC50 (CDK12): > 10 µM
IC50 (ROS1): > 10 µM
IC50 (EPHB3): > 10 µM
IC50 (CDK1): > 10 µM
IC50 (FYN): > 10 µM
IC50 (MERTK): > 10 µM
IC50 (ALK): > 10 µM
IC50 (CDK7): > 10 µM
IC50 (PLK1): > 10 µM
IC50 (BLK): > 10 µM
IC50 (JAK3): > 10 µM
IC50 (LYN): > 10 µM
IC50 (KIT): > 10 µM
IC50 (PIM1): > 10 µM
IC50 (NTRK3): > 10 µM
IC50 (ABL2): > 10 µM
IC50 (EPHB2): > 10 µM
IC50 (EPHB1): > 10 µM
IC50 (JAK1): > 10 µM
IC50 (CSF1R): > 10 µM
IC50 (AXL): > 10 µM
IC50 (ERBB2): > 10 µM
IC50 (PLK2): > 10 µM
IC50 (DDR1): > 10 µM
IC50 (FES): > 10 µM
IC50 (CDK5): > 10 µM
IC50 (FGFR3): > 10 µM
IC50 (PTK2): > 10 µM
IC50 (CDK3): > 10 µM
IC50 (EPHB4): > 10 µM
IC50 (RAF1): > 10 µM
IC50 (CDK19): > 10 µM
IC50 (FGFR1): > 10 µM
IC50 (CDK8): > 10 µM
IC50 (FRK): > 10 µM
IC50 (ZAK): > 10 µM
SMILES: O=S(=O)(c1ccc(C(O)CO)c(C(F)(F)F)c1)N1CCc2cc(C3CC3NCC3CCNCC3)ccc21 (stereo not drawn) [LTM-1]
